Data: PubChem BioAssay (NCI)
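Cultured in 96-well plates, cells were exposed to test compound for 48 hours across five concentrations. GI50: concentration for 50% inhibition of growth. TGI: concentration producing complete growth inhibition.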

Assays:
Assay in all cases: DTP human tumour cell line panel, 48 h; in the data active means GI50 below about 0.43 µM; inactive means the rest
HCT-116 colon = test system: HCT-116 colon
HS 578T breast = test system: HS 578T breast
EKVX NSCLC = test system: EKVX NSCLC
SK-MEL-5 melanoma = test system: SK-MEL-5 melanoma
RPMI-8226 leukemia = test system: RPMI-8226 leukemia
NCI-H522 lung = test system: NCI-H522 lung
NCI/ADR-RES ovarian = test system: NCI/ADR-RES ovarian
SK-OV-3 ovarian = test system: SK-OV-3 ovarian
HCT-15 colon = test system: HCT-15 colon
SF-295 CNS = test system: SF-295 CNS
RXF 393 renal = test system: RXF 393 renal
HL-60(TB) leukemia = test system: HL-60(TB) leukemia
KM12 colon = test system: KM12 colon
T-47D breast = test system: T-47D breast
MCF7 breast = test system: MCF7 breast
HCC-2998 colon = test system: HCC-2998 colon
SW-620 colon = test system: SW-620 colon
UACC-257 melanoma = test system: UACC-257 melanoma
LOX IMVI melanoma = test system: LOX IMVI melanoma
DU-145 prostate = test system: DU-145 prostate
CCRF-CEM leukemia = test system: CCRF-CEM leukemia
SF-268 CNS = test system: SF-268 CNS
NCI-H23 lung = test system: NCI-H23 lung
BT-549 breast = test system: BT-549 breast
MALME-3M melanoma = test system: MALME-3M melanoma
HT29 colon = test system: HT29 colon
SR leukemia = test system: SR leukemia
SK-MEL-2 melanoma = test system: SK-MEL-2 melanoma
OVCAR-5 ovarian = test system: OVCAR-5 ovarian
TK-10 renal = test system: TK-10 renal
SF-539 CNS = test system: SF-539 CNS
HOP-92 NSCLC = test system: HOP-92 NSCLC
UO-31 renal = test system: UO-31 renal
U251 CNS = test system: U251 CNS
786-0 renal = test system: 786-0 renal
IGROV1 ovarian = test system: IGROV1 ovarian
A498 renal = test system: A498 renal
OVCAR-4 ovarian = test system: OVCAR-4 ovarian
NCI-H226 lung = test system: NCI-H226 lung
OVCAR-3 ovarian = test system: OVCAR-3 ovarian
MOLT-4 leukemia = test system: MOLT-4 leukemia
UACC-62 melanoma = test system: UACC-62 melanoma
HOP-62 NSCLC = test system: HOP-62 NSCLC
OVCAR-8 ovarian = test system: OVCAR-8 ovarian
A549 NSCLC = test system: A549 NSCLC
COLO 205 colon = test system: COLO 205 colon
MDA-MB-231 breast = test system: MDA-MB-231 breast
SNB-19 CNS = test system: SNB-19 CNS
ACHN renal = test system: ACHN renal
K-562 leukemia = test system: K-562 leukemia
PC-3 prostate = test system: PC-3 prostate
SN12C renal = test system: SN12C renal
SK-MEL-28 melanoma = test system: SK-MEL-28 melanoma
NCI-H460 lung = test system: NCI-H460 lung
MDA-MB-435 = test system: MDA-MB-435

Oc1ccc(N=Nc2ccccn2)c(O)c1
active: GI50 (EKVX NSCLC) 407 nM | GI50 (HCT-15 colon) 423 nM | GI50 (HL-60(TB) leukemia) 412 nM | GI50 (LOX IMVI melanoma) 365 nM | GI50 (786-0 renal) 394 nM | GI50 (OVCAR-4 ovarian) 267 nM | GI50 (OVCAR-3 ovarian) 401 nM | GI50 (MOLT-4 leukemia) 420 nM
8750 nM: TGI (HL-60(TB) leukemia)
61800 nM: TGI (SF-539 CNS)
inactive: GI50 (HCT-116 colon) 428 nM | GI50 (HS 578T breast) 59600 nM | GI50 (SK-MEL-5 melanoma) 2100 nM | GI50 (RPMI-8226 leukemia) 863 nM | GI50 (NCI-H522 lung) 2680 nM | GI50 (NCI/ADR-RES ovarian) 503 nM | GI50 (SK-OV-3 ovarian) 1230 nM | GI50 (SF-295 CNS) 522 nM | GI50 (RXF 393 renal) 1190 nM | GI50 (KM12 colon) 699 nM | GI50 (T-47D breast) 2050 nM | GI50 (MCF7 breast) 677 nM | GI50 (HCC-2998 colon) 490 nM | GI50 (SW-620 colon) 757 nM | GI50 (UACC-257 melanoma) 3060 nM | GI50 (DU-145 prostate) 1550 nM | GI50 (CCRF-CEM leukemia) 480 nM | GI50 (SF-268 CNS) 732 nM | GI50 (NCI-H23 lung) 2660 nM | GI50 (BT-549 breast) 628 nM | GI50 (MALME-3M melanoma) 4860 nM | GI50 (HT29 colon) 434 nM | GI50 (SR leukemia) 723 nM | GI50 (SK-MEL-2 melanoma) 7440 nM | GI50 (OVCAR-5 ovarian) 2230 nM | GI50 (TK-10 renal) 661 nM | GI50 (SF-539 CNS) 999 nM | GI50 (HOP-92 NSCLC) 2090 nM | GI50 (UO-31 renal) 479 nM | GI50 (U251 CNS) 843 nM | GI50 (IGROV1 ovarian) 595 nM | GI50 (A498 renal) 16700 nM | GI50 (NCI-H226 lung) 3400 nM | GI50 (UACC-62 melanoma) 576 nM | GI50 (HOP-62 NSCLC) 832 nM | GI50 (OVCAR-8 ovarian) 1630 nM | GI50 (A549 NSCLC) 2940 nM | GI50 (COLO 205 colon) 732 nM | GI50 (MDA-MB-231 breast) 641 nM | GI50 (SNB-19 CNS) 2070 nM | GI50 (ACHN renal) 507 nM | GI50 (K-562 leukemia) 582 nM | GI50 (PC-3 prostate) 775 nM | GI50 (SN12C renal) 1910 nM | GI50 (SK-MEL-28 melanoma) 1660 nM | GI50 (NCI-H460 lung) 543 nM | GI50 (MDA-MB-435) 835 nM
33600 nM: TGI (RXF 393 renal)
58200 nM: TGI (UACC-62 melanoma)
82100 nM: TGI (NCI-H226 lung)
6410 nM: TGI (OVCAR-4 ovarian)
24200 nM: TGI (SK-MEL-5 melanoma)
> 100000 nM: TGI (HCT-116 colon) | TGI (HS 578T breast) | TGI (EKVX NSCLC) | TGI (RPMI-8226 leukemia) | TGI (NCI-H522 lung) | TGI (NCI/ADR-RES ovarian) | TGI (SK-OV-3 ovarian) | TGI (HCT-15 colon) | TGI (SF-295 CNS) | TGI (KM12 colon) | TGI (T-47D breast) | TGI (MCF7 breast) | TGI (HCC-2998 colon) | TGI (SW-620 colon) | TGI (UACC-257 melanoma) | TGI (LOX IMVI melanoma) | TGI (DU-145 prostate) | TGI (CCRF-CEM leukemia) | TGI (SF-268 CNS) | TGI (NCI-H23 lung) | TGI (BT-549 breast) | TGI (MALME-3M melanoma) | TGI (HT29 colon) | TGI (SR leukemia) | TGI (SK-MEL-2 melanoma) | TGI (OVCAR-5 ovarian) | TGI (TK-10 renal) | TGI (HOP-92 NSCLC) | TGI (UO-31 renal) | TGI (U251 CNS) | TGI (786-0 renal) | TGI (IGROV1 ovarian) | TGI (A498 renal) | TGI (OVCAR-3 ovarian) | TGI (MOLT-4 leukemia) | TGI (HOP-62 NSCLC) | TGI (OVCAR-8 ovarian) | TGI (A549 NSCLC) | TGI (COLO 205 colon) | TGI (MDA-MB-231 breast) | TGI (SNB-19 CNS) | TGI (ACHN renal) | TGI (K-562 leukemia) | TGI (PC-3 prostate) | TGI (SN12C renal) | TGI (SK-MEL-28 melanoma) | TGI (NCI-H460 lung) | TGI (MDA-MB-435)
